# Reference: paper PMC8621208, “Antiseptic 9-Meric Peptide with Potency against Carbapenem-Resistant Acinetobacter baumannii Infection” (International Journal of Molecular Sciences, 2021)
# Where a SMILES comes first, the peptide text is derived from it. [ ]: non-standard residue; d: D form.
# Legend:
# [1] = system: E. coli; test: MIC, broth dilution; assay type: cell-based, Escherichia coli KCTC 1682; conditions: E. coli; 16 h, MH media; read-out: Minimal Inhibitory Concentration (MIC)
# Excerpt: (§1) Escherichia coli KCTC 1682 was obtained from the Korean Collection for Type Cultures (KCTC) (Jeongeup-si, Korea), Acinetobacter baumannii KCCM 40203, Pseudomonas aeruginosa KCCM 11328 from the Korea Culture Center of Microorganisms (KCCM) (Seoul, Korea). Klebsiella pneumoniae NCCP 16054 were obtained from the National Culture Collection for Pathogens (NCCP) (Osong, Korea). Additionally, two carbapenem-resistant E. coli (CREC E1 and E2), 11 carbapenem-resistant A. baumannii (CRAB C0–C10) and two carbapenem-resistant K. pneumoniae (CRKP K1 and K2) were isolated from the patients, who presented symptoms and signs of infection at Korea University Anam Hospital (Seoul, Korea) (IRB registration no. 2020AN0157, 4 March 2021). CRAB C0–C10 have the OXA-23 gene with carbapenem-resistance.
# (§2) The minimum inhibitory concentrations (MIC) were determined using broth dilution method. Briefly, all the mentioned bacterial strains were grown overnight at 37 °C by Muller–Hinton (MH) media. […] After 16 h incubation, the bacterial growth was read at 600 nm using a SpectraMAX microplate reader (Molecular Devices, San Jose, CA, USA).
# [2] = system: A. baumannii; test: MIC, broth dilution; assay type: cell-based, Acinetobacter baumannii KCCM 40203; conditions: 16 h, MH media, read-out: Minimal Inhibitory Concentration (MIC)
# Excerpt: as §1, §2
# [3] = system: CREC E1; test: MIC, broth dilution; assay type: cell-based, carbapenem-resistant E. coli; conditions: read-out: Minimal Inhibitory Concentration (MIC)
# Excerpt: as §1, §2
# [4] = system: CREC E2; test: MIC, broth dilution; assay type: cell-based, carbapenem-resistant E. coli; conditions: read-out: Minimal Inhibitory Concentration (MIC)
# Excerpt: as §1, §2
# [5] = system: CRAB C0; test: MIC, broth dilution; assay type: cell-based, carbapenem-resistant A. baumannii; conditions: read-out: Minimal Inhibitory Concentration (MIC)
# Excerpt: as §1, §2
# [6] = system: CRAB C10; test: MIC, broth dilution; assay type: cell-based, carbapenem-resistant A. baumannii; conditions: read-out: Minimal Inhibitory Concentration (MIC)
# Excerpt: as §1, §2
# [7] = system: CRAB C2; test: MIC, broth dilution; assay type: cell-based, carbapenem-resistant A. baumannii; conditions: read-out: Minimal Inhibitory Concentration (MIC)
# Excerpt: as §1, §2
# [8] = system: CRAB C3; test: MIC, broth dilution; assay type: cell-based, carbapenem-resistant A. baumannii; conditions: read-out: Minimal Inhibitory Concentration (MIC)
# Excerpt: as §1, §2
# [9] = system: CRAB C4; test: MIC, broth dilution; assay type: cell-based, carbapenem-resistant A. baumannii; conditions: read-out: Minimal Inhibitory Concentration (MIC)
# Excerpt: as §1, §2
# [10] = system: CRAB C5; test: MIC, broth dilution; assay type: cell-based, carbapenem-resistant A. baumannii; conditions: read-out: Minimal Inhibitory Concentration (MIC)
# Excerpt: as §1, §2
# [11] = system: CRAB C6; test: MIC, broth dilution; assay type: cell-based, carbapenem-resistant A. baumannii; conditions: read-out: Minimal Inhibitory Concentration (MIC)
# Excerpt: as §1, §2
# [12] = system: CRAB C7; test: MIC, broth dilution; assay type: cell-based, carbapenem-resistant A. baumannii; conditions: read-out: Minimal Inhibitory Concentration (MIC)
# Excerpt: as §1, §2
# [13] = system: CRAB C9; test: MIC, broth dilution; assay type: cell-based, carbapenem-resistant A. baumannii; conditions: read-out: Minimal Inhibitory Concentration (MIC)
# Excerpt: as §1, §2
# [14] = system: CRKP K1; test: MIC, broth dilution; assay type: cell-based, carbapenem-resistant K. pneumoniae; conditions: read-out: Minimal Inhibitory Concentration (MIC)
# Excerpt: as §1, §2
# [15] = system: CRKP K2; test: MIC, broth dilution; assay type: cell-based, carbapenem-resistant K. pneumoniae; conditions: read-out: Minimal Inhibitory Concentration (MIC)
# Excerpt: as §1, §2
# [16] = system: human kidney (HK)-2 cells; test: Cytotoxicity, WST-8 assay; assay type: cell-based; conditions: 100 μM, 24 h
# Protocol: Figure 6 In vitro cytotoxicity of Pro9-3 and their analogues. (A) Dose-response curve represent the hemolytic activity of peptides against sheep red blood cell (sRBC). Concentration-dependent (0–100 μM) toxic effects induced by peptides on (B) RAW 264.7 murine macrophage cells and (C) human kidney (HK)-2 cells for 24 h. Melittin was used as a control. Statistical analysis was performed using two-way analysis of variance (ANOVA) with Dunnett’s comparison test. Values are expressed as mean ± SEM of three independent experiments. * p < 0.05, ** p < 0.01, *** p < 0.001, and ns, non-significant compared with the control.
# RAW 264.7 mouse macrophage cells and Human kidney (HK)-2 cells were obtained from Korean cell line bank (Seoul, Korea) and the cells were maintained in DMEM culture media (Thermo Fischer Scientific Inc., Waltham, MA, USA) supplemented with 10% fetal bovine serum, 1% penicillin/streptomycin at 37 °C in a humidified 5% CO2 incubator. The cytotoxicity of the peptides was analyzed using WST-8 cell proliferation assay (Biomax Co, Ltd., Seoul, Korea), and the experiment was performed according to the kit protocol. Briefly, cells (1 × 10^4) were seeded in 96-well plate and the peptides treatment (0–100 μM) were initiated at 80% confluency and then for 24 h. After incubation, WST-8 reagent was added and the change in absorbance was read at 450 nm against reagent blank, and values are expressed as percent cell survival.
# [17] = In vivo toxicity, serum AST, ALT, BUN; parameters: species or system ICR mice; conditions: mice, 1 and 5 mg/kg i.p., 24 h
# Protocol: Control mice received phosphate-buffered saline only and the treatment was performed for 24 h. (B) R-Pro9-3D prolonged the survival rate of mice infected with CRAB C0. […] In sepsis model, mice (5 mice per group) were treated with R-Pro9-3D (1 mg/kg) for 1 h and the antiseptic analyses were evaluated after CRAB C0 (6 × 10^6 CFU/mouse, 16 h) infection. (C) R-Pro9-3D restricted the bacterial entry in the lung, liver, and kidneys. The corresponding organ lysates were plated onto agar plates and the total no of bacterial colonies were scored. (D) R-Pro9-3D effectively normalized the endotoxin levels in CRAB C0-infected mice. (E–G) Effect of R-Pro9-3D on serum levels of AST, ALT and BUN. (H–K) R-Pro9-3D inhibited the production of inflammatory cytokines (TNF-α and IL-6) in the serum and lung lysates of CRAB C0-infected mice, as measured by enzyme-linked immunosorbent assay (ELISA). (L) Photomicrograph show the modulatory effect of R-Pro9-3D on neutrophil infiltration in the hematoxylin and eosin (H&E)-stained lung tissues (Magnification 20×, Scale bar 100 μm). […] Values are expressed as mean ± SEM (Five mice per group). […]
# The ICR mice (n = 5 per group) were intraperitoneally (i.p.) injected with R-Pro9-3D (1 mg and 5 mg/kg/day in PBS) and the serum levels of AST, ALT, and BUN levels were determined using a standard kit from Asan Pharmaceutical as described previously.
smiles,measurement,setting,value
"CC[C@@H](C)[C@@H](NC(=O)[C@@H](Cc1c[nH]c2ccccc12)NC(=O)[C@@H](CCCNC(=N)N)NC(=O)[C@H](N)CCCNC(=N)N)C(=O)N[C@H](C)C(=O)N[C@H](CC(C)C)C(=O)N[C@H](Cc1c[nH]c2ccccc12)C(=O)N[C@H](CC(C)C)C(=O)N[C@H](CCCNC(=N)N)C(N)=O [R-Pro9-3D, rrwialwlr-NH2] (H-[dR][dR][dW][dI][dA][dL][dW][dL][dR]-NH2)",MIC,[1],8 µM
same,MIC,[2],4 µM
same,MIC,[3],8 µM
same,MIC,[4],8 µM
same,MIC,[5],4 µM
same,MIC,[6],4 µM
same,MIC,[7],4 µM
same,MIC,[8],8 µM
same,MIC,[9],4 µM
same,MIC,[10],4 µM
same,MIC,[11],4 µM
same,MIC,[12],4 µM
same,MIC,[13],4 µM
same,MIC,[14],16 µM
same,MIC,[15],8 µM
same,Toxicity in human kidney (HK)-2 cells,[16],9.6%
same,"Serum levels of AST, ALT and BUN",[17],Neither dose of R-Pro9-3D elevated the levels of these enzymes
